Among the data in patent US7214714B2, “20-hydroxyeicosatetraenoic acid production inhibitors” (Taisho Pharmaceutical Co. Ltd., priority 2001, dated 2007) are melting point and IC50 values, retold here.

Series [1] concerns the target 20-HETE-Producing Enzyme derived from Human Renal Microsome. Description: Inhibitory action to 20-HETE-producing enzyme derived from human renal microsome. The format is biochemical. The conditions noted are these: human renal microsome fraction, tritium-arachidonic acid substrate, NADPH, 37° C., 1.5 hours, pH 7.4; read-out: IC50 (inhibition of 20-HETE production). Here is the method:
Inhibitory Action to 20-HETE-Producing Enzyme derived from Human Renal Microsome
With regard to the compounds listed in the above table, their inhibitory actions to 20-HETE production were tested.
This test was carried out in accordance with a method mentioned in J. Pharmacol. Exp. Ther., volume 268, page 474 (1994).
A solution of the test compound adjusted to 1 μM using DMSO was added to a 50 mM of 3-morpholinopropanesulfonic acid buffer (MOPS) (pH 7.4) containing 5 mM of magnesium chloride and 1 mM of sodium ethylenediaminetetraacetate (EDTA), then human renal microsome fraction (Human Cell Culture Center, Anatomic Gift Foundation), [5,6,8,9,11,12,15]tritium-arachidonic acid and NADPH were added thereto as an enzymatic source, a substrate and a coenzyme, respectively and reaction was carried out at 37° C. for 1.5 hours. Formic acid was added to the reaction solution to stop the reaction and then acetonitrile was added thereto (final concentration: 50%). Amount of 20-HETE produced thereby was measured using a high performance liquid chromatography equipped with a radioactive substance detector having an ODS column (Biosil C18; manufactured by Biorad).
Amount of 20-HETE produced when no compound was added was defined as 100% and the concentration of the compound when production of 20-HETE was inhibited to an extent of 50% upon addition of a compound (IC50 value) was calculated.

Molecules are shown by their SMILES. pIC50: −log10 of the molar value.

The term melting point denotes the temperature of the solid-liquid transition. For orientation: pIC50 means the negative decadic logarithm of the IC50, by convention in mol/L. Consider `O/N=C/Nc1ccc(N2CCSCC2)c(F)c1` [Compound 2], for which the melting point is 141 to 142 °C (dec.). In addition, the pIC50 in series [1] was 8.49. The like results for `CCN1CCN(c2ccc(N/C=N/O)cc2C(F)(F)F)CC1` [Compound 77] were, in that order, 158 to 159 °C and 6.29. The like results for `O/N=C/Nc1ccc(N2CCCCCC2)c(Br)c1` [Compound 24] were, in that order, 103.5 to 105 °C and 8.38. The like results for `Cl.O/N=C/Nc1ccc(N2CCN(CCN3CCCC3)CC2)c(F)c1` [Compound 93] were, in that order, 205 °C (dec.) and 6.87. As for `O/N=C/Nc1ccc(N2CCCCCC2)c(Cl)c1` [Compound 23], the melting point was in the range of 113 to 114 °C. Besides, in series [1], the pIC50 is 8.66.

The compound `Cc1cc(N2CCCC3CCCCC32)ccc1N/C=N/O` (stereo not shown) [Compound 46] returned a melting point of 154 to 156 °C. The pIC50 in series [1] was 7.48. The like results for `Cc1cc(N2CC=CCC2)ccc1N/C=N/O` [Compound 20] were, in that order, 146 to 149 °C and 6.18. In turn, `O/N=C/Nc1ccc(N2CCSCC2)c(Cl)c1` [Compound 3, N-hydroxyl-N′-(3-chloro-4-thiomorpholinophenyl)formamidine] returned a melting point of 137 to 138.5 °C. Also, in series [1], the pIC50 is 8.44. As for `Cl.OCCN1CCN(c2ccc(N/C=N/O)cc2F)CC1` [Compound 80], the melting point is 180 to 182 °C (dec.). Further, in series [1], the pIC50 is 7.34. On to `OCCC1CCN(c2ccc(N/C=N/O)cc2F)CC1` [Compound 55], for which the melting point is 172 to 176 °C. In addition, the pIC50 in series [1] is 7.47.

Compound `O/N=C/Nc1ccc(N2CCCCCC2)c(C(F)(F)F)c1` [Compound 26] came in with a melting point of 127 to 128.5 °C. Also, the pIC50 in series [1] is 7.60. For `CC1CN(c2ccc(N/C=N/O)cc2Cl)CC(C)O1` (stereo not shown) [Compound 9], the melting point was 163 to 164 °C (dec.). The pIC50 in series [1] is 7.33. The like results for `Cc1cc(N2CCC3(CC2)OCCO3)ccc1N/C=N/O` [Compound 39] were, in that order, 147 to 150 °C and 8.37.

Turning to `OCCC1CCN(c2ccc(N/C=N/O)cc2)CC1` [Compound 54], the melting point was in the range of 186 to 189 °C. Also, in series [1], the pIC50 is 7.46. The like results for `Cc1cc(N2CCN(CCN3CCCC3)CC2)ccc1N/C=N/O.Cl` [Compound 97] were, in that order, 196 to 198 °C (dec.) and 6.12.

On to `Cl.O=C(CN1CCN(c2ccc(N/C=N/O)cc2)CC1)N1CCOCC1` [Compound 98], for which the melting point is 167 to 169 °C (dec.). Moreover, the pIC50 in series [1] is 7.16. The like results for `Cl.O/N=C/Nc1ccc(N2CCN(C3CCCCC3)CC2)nc1` [Compound 123] were, in that order, 224 to 226 °C (dec.) and 7.04. Consider `O/N=C/Nc1ccc(N2CCOCC2)nc1` [Compound 127, N-[2-(morpholino)pyridine-5-yl]-N′-hydroxyformamidine], for which the pIC50 in series [1] is 6.67. The compound `O/N=C/Nc1ccc(N2CC=CCC2)c(F)c1` [Compound 15] returned a melting point of 129 to 130 °C. Further, in series [1], the pIC50 was 8.41. Regarding `CCN1CCN(c2ccc(N/C=N/O)cc2Br)CC1` [Compound 75], the melting point lay in the range of 204.5 to 206.5 °C. In series [1], the pIC50 was 6.81.

For the compound `O/N=C/Nc1ccc(N2CCC3(CC2)OCCO3)c(Cl)c1` [Compound 35], the melting point lay within 174 to 176 °C. Moreover, in series [1], the pIC50 is 8.30. The like results for `O/N=C/Nc1ccc(N2CCSCC2)c(Br)c1` [Compound 4] were, in that order, 149 to 151 °C and 8.64. `O/N=C/Nc1ccc(N2CCSCC2)cc1` [Compound 1]: the melting point fell in the range of 138 to 141 °C. For the compound `Cl.OCCN1CCN(c2ccc(N/C=N/O)cc2Cl)CC1` [Compound 81], the melting point was 200 to 202 °C (dec.). In series [1], the pIC50 is 7.63. As for `O/N=C/Nc1ccc(N2CCN(C3CCCCC3)CC2)c(Cl)c1` [Compound 107], the pIC50 in series [1] was 7.38.

In turn, `O/N=C/Nc1ccc(N2CCOCC2)nc1` [Compound 128] yielded a melting point of 172 to 174 °C. With `CN1CCN(c2ccc(N/C=N/O)cc2Cl)CC1` [Compound 68], the melting point lay within 188 to 189 °C. In addition, the pIC50 in series [1] was 6.97. The like results for `O/N=C/Nc1ccc(N2CC=CC2)c(Cl)c1` [Compound 11] were, in that order, 118 to 121 °C and 7.90. For the compound `Cl.O/N=C/Nc1ccc(N2CCN(CCN3CCCC3)CC2)c(Cl)c1` [Compound 94], the melting point lay within 161 to 163 °C. In series [1], the negative logarithm of the IC50 (pIC50) was 6.65. Take `OCCN1CCN(c2ccc(N/C=N/O)cc2Br)CC1` [Compound 82]: the melting point was 190 to 192 °C (dec.). Moreover, the pIC50 in series [1] is 7.36. `CCN1CCN(c2ccc(N/C=N/O)cc2Cl)CC1` [Compound 74] yielded a melting point of 207 to 209 °C. In series [1], the pIC50 is 7.14.

As to `O=C(CN1CCN(c2ccc(N/C=N/O)cc2C(F)(F)F)CC1)N1CCOCC1` [Compound 103], the melting point was in the range of 75 to 77 °C. For the same compound, in series [1], the pIC50 is 7.67.

`COCCN(CCOC)c1ccc(N/C=N/O)cc1` [Compound 133] showed a melting point of 97 to 98 °C. Besides, the pIC50 in series [1] is 6.47. The like results for `O/N=C/Nc1ccc(N2CCC3(CC2)OCCO3)cc1` [Compound 33] were, in that order, 157 to 158.5 °C and 8.44. `O=C(CN1CCN(c2ccc(N/C=N/O)cc2Br)CC1)N1CCOCC1` [Compound 101]: the pIC50 in series [1] is 7.68. Consider `CCN(CC)C(=O)C1CCCN(c2ccc(N/C=N/O)cc2C(F)(F)F)C1` (stereo not shown) [Compound 64], for which the melting point was 150 to 156 °C. In series [1], the pIC50 was 7.71. With `Cl.O/N=C/Nc1ccc(N2CCN(C3CCCCC3)CC2)c(Br)c1` [Compound 108], the melting point is 222 to 223 °C (dec.). In addition, the pIC50 in series [1] is 6.53. The like results for `O/N=C/Nc1ccc(N2CCC(O)CC2)c(Cl)c1` [Compound 49] were, in that order, 93 to 97 °C and 8.47. `Cl.O/N=C/Nc1ccc(N2CCN(CCN3CCCC3)CC2)c(C(F)(F)F)c1` [Compound 96]: the melting point is 229 to 231 °C (dec.). The pIC50 in series [1] is 5.81. In turn, `OCCC1CCN(c2ccc(N/C=N/O)cn2)CC1` [Compound 132] displayed a melting point of 151 to 153 °C. In addition, the pIC50 in series [1] was 7.43. On to `Cl.O/N=C/Nc1ccc(N2CCN(C3CCCCC3)CC2)c(F)c1` [Compound 106], for which the melting point is 207 °C (dec.). The pIC50 in series [1] is 6.98. In turn, `O/N=C/Nc1ccc(N2CCCCCCC2)cc1` [Compound 27] displayed a melting point of 170 to 173 °C. In addition, the pIC50 in series [1] is 7.99. The like results for `CCN1CCN(c2ccc(N/C=N/O)cc2F)CC1` [Compound 73] were, in that order, 197 to 200 °C and 7.43. `Cc1cc(N2CCC(CCO)CC2)ccc1N/C=N/O` [Compound 58] registered a melting point of 152 to 154 °C. In series [1], the pIC50 is 7.51.

Regarding `COc1cc(N2CCOCC2)ccc1N/C=N/O` [Compound 130], the melting point was 189 to 190 °C (dec.). Further, the pIC50 in series [1] was 7.34. The like results for `O/N=C/Nc1ccc(N2CC=CCC2)c(Cl)c1` [Compound 16] were, in that order, 135 to 137.5 °C and 8.66.

As for `O/N=C/Nc1ccc(N2CCC(O)CC2)c(F)c1` [Compound 48], the melting point was in the range of 159 to 161 °C. Also, the pIC50 in series [1] is 8.49. `O/N=C/Nc1ccc(N2CCN(C3CCCCC3)CC2)cc1` [Compound 105]: the pIC50 in series [1] was 7.83. In the case of `O/N=C/Nc1ccc(N2CC=CCC2)c(C(F)(F)F)c1` [Compound 19], the melting point was 136.5 to 138 °C. For the same compound, the pIC50 in series [1] was 7.74. `O/N=C/Nc1ccc(N2CCCCCCC2)c(F)c1` [Compound 28] gave a melting point of 137 to 139 °C. The pIC50 in series [1] was 8.24. The like results for `O/N=C/Nc1ccc(N2CCN(c3ccccn3)CC2)c(Cl)c1` [Compound 131] were, in that order, 94 to 96 °C and 8.46.

For the compound `CCN1CCN(c2ccc(N/C=N/O)cc2)CC1` [Compound 72], the melting point lay in the range of 220 to 222 °C. Moreover, the pIC50 in series [1] is 7.41. As to `CCOC(=O)C1CCN(c2ccc(N/C=N/O)cc2Cl)CC1` [Compound 134], the melting point is 135 to 138 °C (dec.). Also, the pIC50 in series [1] is 8.40. The compound `O/N=C/Nc1ccc(N2CCC3(CC2)OCCO3)c(F)c1` [Compound 34] displayed a melting point of 165 to 167 °C. For the same compound, the pIC50 in series [1] is 8.15. As to `O/N=C/Nc1ccc(N2CCN(C3CCCCC3)CC2)c(C(F)(F)F)c1` [Compound 110], the melting point was in the range of 93 to 96 °C. In addition, the pIC50 in series [1] is 6.27. Consider `COCCN(CCOC)c1ccc(N/C=N/O)cc1Cl` [Compound 119], for which the melting point was 95 to 96.5 °C. For the compound `O/N=C/Nc1ccc(N2CC=CC2)c(Br)c1` [Compound 12], the pIC50 in series [1] was 7.80.
